Like-named read-outs stand apart in the source and are kept apart here. Marks after values point to notes of the source that are not given here.
Tests used:
[1] = tested on: isolated rat liver mitochondria; assay: Mitochondrial oxygen consumption (glutamate/malate or succinate driven, state 4 and state 3); type: biochemical; conditions: for Glutamate/malate driven respiration State 3 / Glutamate/malate driven respiration State 4 / Succinate-driven respiration State 3 / Succinate-driven respiration State 4: oxygen consumption, DMSO-treated = 1; as to State 3 respiration driven by succinate at 10XCmax: key: 0 indicates that the drug had no effects (negative); as to State 3 respiration driven by succinate at 1XCmax: key: 0 indicates that the drug had no effects (negative)
Summary of the method: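 Oxygen uptake on glutamate/malate or on succinate defined state 4; ADP added 3 min later gave state 3. Mitochondria isolated from rat liver by differential centrifugation, adjusted to 1 mg/ml and pretreated 5 min with inhibitor (0.1% DMSO final). Values relative to DMSO control, set to 1.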

RCC III = RCC III activity in submitochondrial particles; type: biochemical, rat; design: key to RCC III at 100XCmax: activity relative to DMSO-treated controls (control set as 1 = 100%); conditions: for RCC activity III: 15 min, DMSO-treated = 100
Summary of the method: (§1)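 Rat submitochondrial particles (1 mg/ml) were treated with test compounds for 15 min. RCC IV, like RCC III, was monitored at 550 nm every 10 s for 2 min, and RCC I/V at 340 nm each minute for 6 min. DMSO samples defined unit activity.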

RCC IV = RCC IV activity in submitochondrial particles; type: biochemical, rat; design: key to RCC IV at 50XCmax / RCC IV at 100XCmax: activity relative to DMSO-treated controls (control set as 1 = 100%); conditions: for RCC activity IV: 15 min, DMSO-treated = 100
Summary of the method: as §1

[2] = tested on: isolated rat liver mitochondria; assay: Mitochondrial inner membrane potential (MMP), Rhodamine 123; type: biochemical
Excerpt: Fig. 3 KI effects on mitochondrial inner membrane potential (MMP). […] In a, c, data are means and standard derivations from three separate experiments. *p < 0.05 as compared to DMSO-treated samples at the end of experiments. In b, data are means of two independent experiments

[3] = tested on: isolated rat liver mitochondria; assay: Mitochondrial swelling (absorbance at 535 nm); type: biochemical; as to Swelling 5XCmax: key: 0 indicates that the drug had no effects (negative)
[4] = tested on: isolated rat liver mitochondria
[5] = cited from earlier work
[6] = cited from earlier work; remark: listed apart in the source
[7] = tested on: isolated rat liver mitochondria; assay: Mitochondrial ROS production (CM-H2DCFDA)
[8] = 1XCmax, DMSO treated samples set as 1
[9] = 2.5XCmax, DMSO treated samples set as 1
[10] = 5XCmax, DMSO treated samples set as 1
[11] = 10XCmax, DMSO treated samples set as 1
[12] = 20XCmax, DMSO treated samples set as 1
[13] = 30XCmax, DMSO treated samples set as 1
[14] = 50XCmax, DMSO treated samples set as 1
[15] = 100XCmax, DMSO treated samples set as 1
[16] = 1XCmax, difference in signal between KI and DMSO treated samples at the end of experiments
[17] = 2.5XCmax, difference in signal between KI and DMSO treated samples at the end of experiments
[18] = 5XCmax, difference in signal between KI and DMSO treated samples at the end of experiments
[19] = 10XCmax, difference in signal between KI and DMSO treated samples at the end of experiments
[20] = 20XCmax, difference in signal between KI and DMSO treated samples at the end of experiments
[21] = 30XCmax, difference in signal between KI and DMSO treated samples at the end of experiments
[22] = 50XCmax, difference in signal between KI and DMSO treated samples at the end of experiments
[23] = 100XCmax, difference in signal between KI and DMSO treated samples at the end of experiments

With `Cc1cc(Nc2ncc(Cl)c(Nc3ccccc3S(=O)(=O)C(C)C)n2)c(OC(C)C)cc1C1CCNCC1` [Ceritinib] the “State 3 respiration driven by glutamate/malate at 1XCmax” value [1, 8] was 0, the “State 3 respiration driven by succinate at 1XCmax” value [1, 8] was 0 and the “State 4 respiration driven by glutamate/malate at 1XCmax” value [1, 8] was 0. The “State 4 respiration driven by succinate at 1XCmax” value [1, 8] was 0, the “State 3 respiration driven by glutamate/malate at 2.5XCmax” value [1, 9] was 0 and the “State 3 respiration driven by succinate at 2.5XCmax” value [1, 9] was 0. The “State 4 respiration driven by glutamate/malate at 2.5XCmax” value [1, 9] was 0, the “State 4 respiration driven by succinate at 2.5XCmax” value [1, 9] was 0 and the “State 3 respiration driven by glutamate/malate at 5XCmax” value [1, 10] was 0. The “State 3 respiration driven by succinate at 5XCmax” value [1, 10] was 0, the “State 4 respiration driven by glutamate/malate at 5XCmax” value [1, 10] was 0 and the “State 4 respiration driven by succinate at 5XCmax” value [1, 10] was 0. For the same molecule, the “State 3 respiration driven by glutamate/malate at 10XCmax” value [1, 11] was 0, the “State 3 respiration driven by succinate at 10XCmax” value [1, 11] was 0 and the “State 4 respiration driven by glutamate/malate at 10XCmax” value [1, 11] was 0. The “State 4 respiration driven by succinate at 10XCmax” value [1, 11] was 0, the “State 3 respiration driven by glutamate/malate at 20XCmax” value [1, 12] was 0 and the “State 3 respiration driven by succinate at 20XCmax” value [1, 12] was 0. For the same molecule, the “State 4 respiration driven by glutamate/malate at 20XCmax” value [1, 12] was 0, the “State 4 respiration driven by succinate at 20XCmax” value [1, 12] was 0 and the “Glutamate/malate driven respiration State 3” value ([1]; 30-fold Cmax) was 0.88 ± 0.05. The “Glutamate/malate driven respiration State 4” value ([1]; 30-fold Cmax) was 1.12 ± 0.13, the “Succinate-driven respiration State 3” value ([1]; 30-fold Cmax) was 0.41 ± 0.18 and the “Succinate-driven respiration State 4” value ([1]; 30-fold Cmax) was 0.70 ± 0.12. For the same molecule, the “State 3 respiration driven by glutamate/malate at 30XCmax” value [1, 13] was 0, the “State 3 respiration driven by succinate at 30XCmax” value [1, 13] was 0.41±0.18 and the “State 4 respiration driven by glutamate/malate at 30XCmax” value [1, 13] was 0. The “State 4 respiration driven by succinate at 30XCmax” value [1, 13] was 0.70±0.12, the “Glutamate/malate driven respiration State 3” value ([1]; 50-fold Cmax) was 0.55 ± 0.03 and the “Glutamate/malate driven respiration State 4” value ([1]; 50-fold Cmax) was 1.21 ± 0.12. For the same molecule, the “Succinate-driven respiration State 3” value ([1]; 50-fold Cmax) was 0.45 ± 0.08, the “Succinate-driven respiration State 4” value ([1]; 50-fold Cmax) was 0.77 ± 0.07 and the “State 3 respiration driven by glutamate/malate at 50XCmax” value [1, 14] was 0.55±0.03. For the same molecule, the “State 3 respiration driven by succinate at 50XCmax” value [1, 14] was 0.45±0.08, the “State 4 respiration driven by glutamate/malate at 50XCmax” value [1, 14] was 1.21±0.12 and the “State 4 respiration driven by succinate at 50XCmax” value [1, 14] was 0.77±0.07. For the same molecule, the “inhibition of mitochondrial oxygen consumption” value ([1]; 100-fold Cmax) was about 100%, the “Glutamate/malate driven respiration State 3” value ([1]; 100-fold Cmax) was 0.08 ± 0.02 and the “Glutamate/malate driven respiration State 4” value ([1]; 100-fold Cmax) was 0.50 ± 0.06. The “Succinate-driven respiration State 3” value ([1]; 100-fold Cmax) was 0.03 ± 0.02, the “Succinate-driven respiration State 4” value ([1]; 100-fold Cmax) was 0.17 ± 0.10 and the “State 3 respiration driven by glutamate/malate at 100XCmax” value [1, 15] was 0.08±0.02. For the same molecule, the “State 3 respiration driven by succinate at 100XCmax” value [1, 15] was 0.03±0.02, the “State 4 respiration driven by glutamate/malate at 100XCmax” value [1, 15] was 0.50±0.06 and the “State 4 respiration driven by succinate at 100XCmax” value [1, 15] was 0.17±0.10. The “lowest concentration significantly affecting mitochondrial oxygen consumption” value ([1]; tested at 1 to 100-fold Cmax) was 30 fold Cmax, the “RCC activity III” value (RCC III; 50-fold Cmax) was 103.80 ± 5.19 % of control and the “RCC activity III” value (RCC III; 100-fold Cmax) was 68.48 ± 6.59 % of control. For the same molecule, the “RCC III at 100XCmax” value (RCC III; 100XCmax) was 68.48±6.59, the “RCC activity IV” value (RCC IV; 50-fold Cmax) was 82.33 ± 3.68 % of control and the “RCC IV at 50XCmax” value (RCC IV; 50XCmax, DMSO treated samples set as 1, in %) was 82.33±3.68. The “RCC activity IV” value (RCC IV; 100-fold Cmax) was 71.46 ± 7.39 % of control, the “RCC IV at 100XCmax” value (RCC IV; 100XCmax) was 71.46±7.39 and the “lowest concentration decreasing MMP” value [2] was 100 fold Cmax. For the same molecule, the “MMP measured by Rhodamine 123 at 1XCmax” value [2, 16] was 0, the “MMP measured by Rhodamine 123 at 2.5XCmax” value [2, 17] was 0 and the “MMP measured by Rhodamine 123 at 5XCmax” value [2, 18] was 0. The “MMP measured by Rhodamine 123 at 10XCmax” value [2, 19] was 0, the “MMP measured by Rhodamine 123 at 20XCmax” value [2, 20] was 0 and the “MMP measured by Rhodamine 123 at 30XCmax” value [2, 21] was 0. For the same molecule, the “MMP measured by Rhodamine 123 at 50XCmax” value [2, 22] was 0, the “MMP measured by Rhodamine 123 at 100XCmax” value [2, 23] was 4568±757* and the “effect on MMP” value ([2]; up to 100-fold Cmax or highest testable concentration) was “decrease in MMP”. For the same molecule, the “lowest concentration causing mitochondrial swelling” value [3] was 100 fold Cmax, the “Swelling 1XCmax” value [3, 16] was 0 and the “Swelling 2.5XCmax” value [3, 17] was 0. The “Swelling 5XCmax” value [3, 18] was 0, the “Swelling 10XCmax” value [3, 19] was 0 and the “Swelling 20XCmax” value [3, 20] was 0. For the same molecule, the “Swelling 30XCmax” value [3, 21] was 0, the “Swelling 50XCmax” value [3, 22] was 0 and the “Swelling 100XCmax” value [3, 23] was 0.54±0.06. The “effect on mitochondrial swelling” value ([3]; up to 100-fold Cmax or highest testable concentration, 25 µM calcium chloride) was “significant mitochondrial swelling”, the “Cytochrome c release 1XCmax” value ([4]; 1XCmax, positive control alamethicin treated samples) was 0 and the “Cytochrome c release 2.5XCmax” value ([4]; 2.5XCmax, positive control alamethicin treated samples) was 0. For the same molecule, the “Cytochrome c release 5XCmax” value ([4]; 5XCmax, positive control alamethicin treated samples) was 0, the “Cytochrome c release 10XCmax” value ([4]; 10XCmax, positive control alamethicin treated samples) was 0 and the “Cytochrome c release 20XCmax” value ([4]; 20XCmax, positive control alamethicin treated samples) was 0. The “Cytochrome c release 30XCmax” value ([4]; 30XCmax, positive control alamethicin treated samples) was 0, the “Cytochrome c release 50XCmax” value ([4]; 50XCmax, positive control alamethicin treated samples) was 11.93±0.58 percentage of the positive control group and the “total cytochrome c leaked after treatment” value ([4]; 100-fold Cmax, alamethicin = 100) was 33%. The “Cytochrome c release 100XCmax” value ([4]; 100XCmax, positive control alamethicin treated samples) was 32.92±4.32 percentage of the positive control group, the “lowest concentration causing cytochrome c release” value ([4]; rat, 30 min, pH 7.4) was 50 fold Cmax and the Cmax ([5]; human therapeutic Cmax at FDA recommended dosages, ref product labeling and drug approval packages at the official FDA website) was 1.81 µM. The “Cmax (ng or µg/ml)” value ([5]; human therapeutic maximal blood concentration, ref product labeling) was 1.01 µg/mL, the Cmax ([5]; read-out: Cmax at µM, human therapeutic maximal blood concentration, ref product labeling) was 1.81 µM and the “DILI potential (based on labeling)” value ([6]; 1 DILI positive, 0 negative according to labeling, ref product labeling) was 1. The “Labeling for DILI” value ([6]; BBW: black box warning, W&P: Warnings and Precautions, ref product labeling) was “W&P: ALT↑”, the “labeling for DILI” value ([6]; W&P warnings and precautions, BBW black box warnings, ref FDA product labeling) was “W&P: ALT↑/monitoring” and the “DILI potential (based on labeling)” value ([6]; ref FDA product labeling) was 1. The “lowest concentration triggering ROS overproduction” value [7] was 50 fold Cmax, the “ROS measured by CM-H2DCFDA at 1XCmax” value [7, 8] was 0 and the “ROS measured by CM-H2DCFDA at 2.5XCmax” value [7, 9] was 0. The “ROS measured by CM-H2DCFDA at 5XCmax” value [7, 10] was 0, the “ROS measured by CM-H2DCFDA at 10XCmax” value [7, 11] was 0 and the “ROS measured by CM-H2DCFDA at 20XCmax” value [7, 12] was 0. The “ROS measured by CM-H2DCFDA at 30XCmax” value [7, 13] was 0, the “ROS measured by CM-H2DCFDA at 50XCmax” value [7, 14] was 2.51±0.21 and the “ROS measured by CM-H2DCFDA at 100XCmax” value [7, 15] was 1.93±0.49. The “effect on ROS production” value ([7]; highest tested concentrations) was “significantly ROS production”.
